Laboratory results from the supplement of paper PMC11061612.

Legend:
Test in all cases: Bliss excess, mean over the matrix (fraction); higher = more synergy
[1] = system: HL-60 (Acute Myeloid Leukemia)
Procedure, shortened: (§1)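 Bliss excess equals the observed combination effect minus the expected value EA + EB − EA·EB, where EA and EB are the effects of each agent alone. Combination Emax is the second-highest inhibition within the matrix. Inhibition was scaled from CellTiter-Glo 2.0 luminescence, with 0 set by vehicle wells and 1 by blank wells, after 72 hours of two-drug dosing of cells plated in 1536-well plates.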

[2] = system: MOLT-16 (T-Lymphoblastic Leukemia)
Procedure, shortened: as §1

[3] = system: CHP-212 (Neuroblastoma)
Procedure, shortened: as §1

[4] = system: KYSE-180 (Esophageal Squamous Cell Carcinoma)
Procedure, shortened: as §1

[5] = system: BFTC-905 (Bladder Carcinoma)
Procedure, shortened: as §1

[6] = system: KM12 (Colorectal Carcinoma)
Procedure, shortened: as §1

[7] = system: K-562 (Chronic Myelogenous Leukemia)
Procedure, shortened: as §1

[8] = system: LN-18 (Glioblastoma)
Procedure, shortened: as §1

[9] = system: DND-41 (T-Lymphoblastic Leukemia)
Procedure, shortened: as §1

[10] = system: GR-ST (B-Lymphoblastic Leukemia)
Procedure, shortened: as §1

[11] = system: SR (Other Blood Carcinomas)
Procedure, shortened: as §1

[12] = system: WIL2-NS (Non-Cancerous)
Procedure, shortened: as §1

[13] = system: MS751 (Cervical Carcinoma)
Procedure, shortened: as §1

[14] = system: TC-71 (Ewing's Sarcoma)
Procedure, shortened: as §1

[15] = system: ES1 (Ewing's Sarcoma)
Procedure, shortened: as §1

[16] = system: ES8 (Ewing's Sarcoma)
Procedure, shortened: as §1

[17] = system: NCI-H1792 (Lung Adenocarcinoma)
Procedure, shortened: as §1

[18] = system: TOV-112D (Ovarian Carcinoma)
Procedure, shortened: as §1

[19] = system: PANC-08-13 (Pancreatic Carcinoma)
Procedure, shortened: as §1

[20] = system: U251 (Low Grade Glioma)
Procedure, shortened: as §1

Cc1cc2ncnn2cc1Nc1ncc2c(n1)n(C1CCOCC1)c(=O)n2C [AZD7648] + C[C@@H]1COCCN1C2=NC(=NC(=C2)C3(CC3)[S@](=N)(=O)C)C4=C5C=CNC5=NC=C4 [AZD6738] (first compound max 10 µM, 7x7, partner max 10 µM) gave a Bliss excess [1] of -0.0079, a Bliss excess [2] of -0.0368 and a Bliss excess [3] of -0.0035. For the same compound, the Bliss excess [4] was 0.0394, the Bliss excess [5] was 0.0081 and the Bliss excess [6] was 0.0057. For the same compound, the Bliss excess [7] was -0.0096, the Bliss excess [8] was -0.0084 and the Bliss excess [9] was -0.01. It also gave a Bliss excess [10] of -0.116, a Bliss excess [11] of 0.0148 and a Bliss excess [12] of 0.0015. It also gave a Bliss excess [13] of 0.0606, a Bliss excess [14] of 0.041 and a Bliss excess [15] of -0.0001. The Bliss excess [16] was 0.0071, the Bliss excess [17] was -0.0047 and the Bliss excess [18] was 0.0024. It also gave a Bliss excess [19] of 0.0227 and a Bliss excess [20] of 0.0581.

Work on Cc1cc2ncnn2cc1Nc1ncc2c(n1)n(C1CCOCC1)c(=O)n2C [AZD7648] + O=C(c1cc(Cc2n[nH]c(=O)c3ccccc23)ccc1F)N1CCN(C(=O)C2CC2)CC1 [Olaparib] (first compound max 10 µM, 7x7, partner max 10 µM) yielded a Bliss excess [1] of -0.0151, a Bliss excess [2] of -0.019 and a Bliss excess [3] of -0.0391. It also gave a Bliss excess [4] of -0.0406, a Bliss excess [5] of -0.0299 and a Bliss excess [6] of -0.035. For the same compound, the Bliss excess [7] was 0.0107, the Bliss excess [8] was -0.0351 and the Bliss excess [9] was 0.0069. The Bliss excess [10] was -0.0706, the Bliss excess [11] was 0.0433 and the Bliss excess [12] was -0.0669. For the same compound, the Bliss excess [13] was 0.0017, the Bliss excess [14] was -0.0106 and the Bliss excess [15] was -0.0604. For the same compound, the Bliss excess [16] was -0.0626, the Bliss excess [17] was -0.033 and the Bliss excess [18] was -0.0285. It also gave a Bliss excess [19] of -0.0538 and a Bliss excess [20] of 0.0043.

NC1(C(=O)N[C@@H](CCO)c2ccc(Cl)cc2)CCN(c2ncnc3[nH]ccc23)CC1 [Capivasertib] + CC(=O)c1c(C)c2cnc(Nc3ccc(N4CCNCC4)cn3)nc2n(C2CCCC2)c1=O [Palbociclib] (first compound max 10 µM, 7x7, partner max 10 µM) showed a Bliss excess [1] of -0.0406, a Bliss excess [2] of -0.0011 and a Bliss excess [3] of 0.0311. For the same compound, the Bliss excess [4] was 0.0645, the Bliss excess [5] was 0.0048 and the Bliss excess [6] was 0.0176. It also gave a Bliss excess [7] of 0.0122, a Bliss excess [8] of 0.0368 and a Bliss excess [9] of -0.0146. It also gave a Bliss excess [10] of -0.0067, a Bliss excess [11] of 0.0289 and a Bliss excess [12] of -0.0049. The Bliss excess [13] was -0.0222, the Bliss excess [14] was 0.0341 and the Bliss excess [15] was 0.0697. The Bliss excess [16] was 0.0848, the Bliss excess [17] was 0.0419 and the Bliss excess [18] was 0.0029. The Bliss excess [19] was -0.0151 and the Bliss excess [20] was 0.0007.

Work on NC1(C(=O)N[C@@H](CCO)c2ccc(Cl)cc2)CCN(c2ncnc3[nH]ccc23)CC1 [Capivasertib] + CC(C)n1c(=O)n(C)c2cnc3cc(F)c(-c4ccc(OCCCN5CCCCC5)nc4)cc3c21 [AZD1390] (first compound max 10 µM, 7x7, partner max 0.3 µM) yielded a Bliss excess [1] of -0.0656, a Bliss excess [2] of -0.0658 and a Bliss excess [3] of -0.0965. For the same compound, the Bliss excess [4] was -0.0509, the Bliss excess [5] was -0.0329 and the Bliss excess [6] was -0.0399. The Bliss excess [7] was 0.0077, the Bliss excess [8] was -0.0325 and the Bliss excess [9] was -0.0595. It also gave a Bliss excess [10] of -0.0449, a Bliss excess [11] of -0.0452 and a Bliss excess [12] of -0.0379. The Bliss excess [13] was 0.0033, the Bliss excess [14] was -0.0567 and the Bliss excess [15] was -0.111. The Bliss excess [16] was -0.0318, the Bliss excess [17] was -0.0625 and the Bliss excess [18] was -0.0276. The Bliss excess [19] was -0.0908 and the Bliss excess [20] was -0.0549.

Work on NC1(C(=O)N[C@@H](CCO)c2ccc(Cl)cc2)CCN(c2ncnc3[nH]ccc23)CC1 [Capivasertib] + CCN(CCO)CCCOc1ccc2c(Nc3cc(CC(=O)Nc4cccc(F)c4)[nH]n3)ncnc2c1 [AZD2811] (first compound max 10 µM, 7x7, partner max 1 µM) yielded a Bliss excess [1] of -0.0819, a Bliss excess [2] of -0.0183 and a Bliss excess [3] of -0.008. The Bliss excess [4] was -0.0303, the Bliss excess [5] was -0.0462 and the Bliss excess [6] was -0.0303. It also gave a Bliss excess [7] of -0.0151, a Bliss excess [8] of -0.022 and a Bliss excess [9] of 0.0071. The Bliss excess [10] was 0.0222, the Bliss excess [11] was -0.0053 and the Bliss excess [12] was -0.0431. For the same compound, the Bliss excess [13] was 0.0515, the Bliss excess [14] was -0.0573 and the Bliss excess [15] was -0.0207. The Bliss excess [16] was -0.0394, the Bliss excess [17] was -0.0079 and the Bliss excess [18] was 0.0175. For the same compound, the Bliss excess [19] was -0.0015 and the Bliss excess [20] was 0.0469.

NC1(C(=O)N[C@@H](CCO)c2ccc(Cl)cc2)CCN(c2ncnc3[nH]ccc23)CC1 [Capivasertib] + COc1nnc2ccc(N3CCC(c4ccc(OCCN5CCN(C)C(=O)[C@H]5C)cc4)CC3)nn12 [AZD5153] (first compound max 10 µM, 7x7, partner max 1 µM) showed a Bliss excess [1] of 0.0346, a Bliss excess [2] of 0.0458 and a Bliss excess [3] of 0.0469. For the same compound, the Bliss excess [4] was 0.0387, the Bliss excess [5] was -0.0346 and the Bliss excess [6] was 0.0143. It also gave a Bliss excess [7] of 0.0061, a Bliss excess [8] of 0.0494 and a Bliss excess [9] of 0.0339. It also gave a Bliss excess [10] of -0.0565, a Bliss excess [11] of -0.0166 and a Bliss excess [12] of -0.0933. It also gave a Bliss excess [13] of -0.0065, a Bliss excess [14] of 0.0228 and a Bliss excess [15] of 0.035. The Bliss excess [16] was 0.0894, the Bliss excess [17] was 0.0039 and the Bliss excess [18] was 0.0088. The Bliss excess [19] was 0.0483 and the Bliss excess [20] was 0.0284.

NC1(C(=O)N[C@@H](CCO)c2ccc(Cl)cc2)CCN(c2ncnc3[nH]ccc23)CC1 [Capivasertib] + C[C@@H]1COCCN1C2=NC(=NC(=C2)C3(CC3)[S@](=N)(=O)C)C4=C5C=CNC5=NC=C4 [AZD6738] (first compound max 10 µM, 7x7, partner max 10 µM) gave a Bliss excess [1] of -0.04, a Bliss excess [2] of -0.0161 and a Bliss excess [3] of -0.0156. The Bliss excess [4] was -0.0866, the Bliss excess [5] was -0.0391 and the Bliss excess [6] was 0.0297. It also gave a Bliss excess [7] of -0.0383, a Bliss excess [8] of -0.0463 and a Bliss excess [9] of -0.0221. It also gave a Bliss excess [10] of -0.035, a Bliss excess [11] of 0.016 and a Bliss excess [12] of -0.0529. For the same compound, the Bliss excess [13] was -0.0156, the Bliss excess [14] was 0.0295 and the Bliss excess [15] was -0.0448. For the same compound, the Bliss excess [16] was 0.0038, the Bliss excess [17] was -0.0208 and the Bliss excess [18] was -0.0632. The Bliss excess [19] was 0.0128 and the Bliss excess [20] was -0.0006.
